From patent US20090312274A1, “Nyasol and Analogs Thereof for the Treatment of Estrogen Receptor Beta-Mediated Diseases” (Bionovo, Inc., priority 2008, published 2009)
“Also recorded” adds a separate entry of the source.

Legend:
[1] = tested on: primary invasive breast cancer; conditions: women at high risk for breast cancer; cited from earlier work
TNF-RE tkLuc = assay: Activation of the TNF-RE tkLuc reporter (TNF-α, antiestrogens); format: cell-based; conditions: for activation of TNF-RE tkLuc by antiestrogens: in contrast to E2
[2] = tested on: estrogen receptor-positive breast cancer; conditions: cited from earlier work
breast cancer = conditions: among the 5129 women in the raloxifene treatment group; median follow-up 40 months; cited from earlier work
[3] = molecular target: T1, estrogen receptor beta (ERβ) (Homo sapiens, UniProt Q92731); assay: ERE-tkLuc luciferase expression with nyasol in cells coexpressing ERβ (FIG. 3, FIG. 5); format: cell-based
T1 construct: expressed in transfected cells
T1 sequence (Q92731 whole entry): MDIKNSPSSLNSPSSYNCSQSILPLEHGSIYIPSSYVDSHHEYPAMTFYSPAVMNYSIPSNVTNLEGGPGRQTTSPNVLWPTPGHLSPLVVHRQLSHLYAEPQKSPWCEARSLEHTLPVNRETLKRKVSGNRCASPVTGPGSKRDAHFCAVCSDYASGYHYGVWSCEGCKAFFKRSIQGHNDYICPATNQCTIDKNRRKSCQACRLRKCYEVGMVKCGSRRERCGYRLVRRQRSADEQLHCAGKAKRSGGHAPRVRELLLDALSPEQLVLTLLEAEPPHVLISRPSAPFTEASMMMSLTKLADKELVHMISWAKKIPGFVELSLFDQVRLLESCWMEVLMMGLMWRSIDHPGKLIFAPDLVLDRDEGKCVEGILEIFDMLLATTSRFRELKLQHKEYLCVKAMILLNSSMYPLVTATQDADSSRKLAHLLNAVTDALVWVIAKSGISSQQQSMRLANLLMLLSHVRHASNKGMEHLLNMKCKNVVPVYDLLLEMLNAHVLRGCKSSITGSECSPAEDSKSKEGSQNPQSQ
From the text: FIG. 3 is a graph comparing luciferase expression in cells transformed with DNA encoding estrogen response element alpha linked to the minimal thymidine kinase (tk) promoter and a sequence encoding luciferase (Luc) in response to varying concentrations of nyasol in the presence of either estrogen receptor alpha (ERα) or estrogen receptor beta (ERβ).

ERα = molecular target: T2, ERα (Homo sapiens, UniProt P03372); assay: Concentration binding curve for Nyasol, ERα (FIG. 6)
T2 sequence (P03372 1-595): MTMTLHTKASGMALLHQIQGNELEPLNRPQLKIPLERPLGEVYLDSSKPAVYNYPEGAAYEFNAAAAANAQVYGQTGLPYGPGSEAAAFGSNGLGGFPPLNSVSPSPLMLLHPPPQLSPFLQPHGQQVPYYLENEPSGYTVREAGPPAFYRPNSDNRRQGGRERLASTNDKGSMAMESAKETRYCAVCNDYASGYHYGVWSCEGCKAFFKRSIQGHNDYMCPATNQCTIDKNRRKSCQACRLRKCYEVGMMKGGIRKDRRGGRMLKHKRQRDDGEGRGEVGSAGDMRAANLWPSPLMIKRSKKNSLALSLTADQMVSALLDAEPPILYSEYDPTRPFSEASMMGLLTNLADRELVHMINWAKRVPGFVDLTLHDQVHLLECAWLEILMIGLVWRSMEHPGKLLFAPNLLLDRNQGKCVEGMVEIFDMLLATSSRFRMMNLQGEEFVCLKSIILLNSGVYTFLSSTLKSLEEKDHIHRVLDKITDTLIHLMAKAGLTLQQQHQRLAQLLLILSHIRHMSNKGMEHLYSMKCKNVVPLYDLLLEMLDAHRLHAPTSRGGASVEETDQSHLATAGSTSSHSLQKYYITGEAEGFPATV

[4] = tested on: MCF-7 breast cancer cells; assay: MCF-7 kidney capsule xenografts in nude mice; design: dose or concentration left out as unconfirmed; conditions: 28 days
Method: MCF-7 xenografts were introduced into nude mouse kidneys. Mice were randomized to three treatment groups. […] Each treatment group was treated for 28 days, after which mice were euthanized and the kidneys containing the xenografts were excised, photographed and weighed.

TNFα-RE = assay: Repression of TNFα-RE linked expression of Luc by nyasol (FIG. 4); conditions: in vitro
ERβ [5] = molecular target: T3, ERβ (Homo sapiens, UniProt Q92731); assay: Concentration binding curve for Nyasol, ERβ (FIG. 6)
T3 sequence (Q92731 whole entry): as the sequence (Q92731 whole entry) above

ERβ [6] = molecular target: T3, ERβ; conditions: in the presence of ERβ
[7] = five years of tamoxifen therapy

## CC/C(=C(\c1ccccc1)c1ccc(OCCN(C)C)cc1)c1ccccc1 [tamoxifen]
[1]
  reduction of the risk of primary invasive breast cancer: 49%
TNF-RE tkLuc
  activation of TNF-RE tkLuc by antiestrogens: 2 fold
[2]; [7]
  reduction of mortality from breast cancer: 22%
  reduction of the risk of recurrences: 42%
[2]; fraction of tumors
  ER positive breast tumors that respond: ⅔

## O=C(c1ccc(OCCN2CCCCC2)cc1)c1c(-c2ccc(O)cc2)sc2cc(O)ccc12 [raloxifene]
Breast cancer
  cases of breast cancer: 13 cases
TNF-RE tkLuc
  activation of TNF-RE tkLuc by antiestrogens: 2 fold
[3]; FIG. 5, added together with Nyasol, ERβ
  effect of addition to nyasol on activation of the ERE: reduced this activation

## C[C@]12CC[C@@H]3c4ccc(O)cc4C[C@@H](CCCCCCCCC[S+]([O-])CCCC(F)(F)C(F)(F)F)[C@H]3[C@@H]1CC[C@@H]2O (some centres unmarked) [ICI 182780]
TNF-RE tkLuc
  activation of TNF-RE tkLuc by antiestrogens: 2 fold

## C=CC(/C=C\c1ccc(O)cc1)c1ccc(O)cc1 (centres unmarked) [Nyasol, nyasol]
ERα
  binding of ERα with nyasol: bind
[4]
  growth of MCF-7 kidney capsule xenografts compared to control: inhibits the growth
TNFα-RE
  repression of TNFα-RE linked expression of Luc: selectively represses
[3]; FIG. 3, varying concentrations of nyasol, ERE-tkLuc
  ERβ-selective activation of the ERE (luciferase expression, ERβ versus ERα): selectively activates the ERE; also recorded: selective estrogen receptor beta agonist
[3]; FIG. 5, nyasol, control EtOH
  expression of luciferase in ERE-tkLuc-transformed cells coexpressing ERβ: activated the ERE
ERβ [5]
  binding of ERβ with nyasol: bind

## C[C@]12CC[C@@H]3c4ccc(O)cc4CC[C@H]3[C@@H]1CC[C@@H]2O [E2, estradiol]
ERβ [6]
  repression of TNF-α activation of TNF-RE tkLuc: 60-80%

## TNF-α
TNF-RE tkLuc; TNF-α as stimulus
  activation of 3 copies of the TNF-RE (−125 to −82) upstream of the tk promoter: 5-10 fold
